According to the supplement of paper PMC5908809:

Assays:
SNK-6 (IL-2 2.5 ng/mL) [1] = assay: percent inhibition of viability; higher = more inhibition; conditions: 72 h
YT (IL-2 2.5 ng/mL) [2] = assay: as above; conditions: 72 h
[3] = test system: normal primary NK cells, pool 1 (3 donors) (IL-2 2.5 ng/mL); assay: as above; conditions: 72 h
[4] = test system: normal primary NK cells, pool 1 (3 donors), resting (IL-2 0 ng/mL); assay: as above; conditions: 72 h
[5] = test system: normal primary NK cells, pool 2 (3 donors) (IL-2 2.5 ng/mL); assay: as above; conditions: 72 h
[6] = test system: normal primary NK cells, pool 3 (3 donors) (IL-2 2.5 ng/mL); assay: as above; conditions: 72 h
[7] = test system: normal NK cells expanded with K562-aAPC; assay: drug sensitivity score (DSS) (DSS units); higher = more sensitive; extreme values may be limits of the assay; conditions: 72 h; IL-2 2.5 ng/mL
Description: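 Drug sensitivity and resistance testing on K562-aAPC-expanded normal NK cells: 5 concentrations (10-fold steps over a 10,000-fold range), 72 h at 37 °C, viability by CellTiter-Glo normalised to DMSO and benzethonium chloride controls; DSS from the fitted curve.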

DERL-7 (IL-2 2.5 ng/mL) = assay: as above; conditions: 72 h
IMC-1 (IL-2 20 ng/mL) = assay: as above; conditions: 72 h
KAI3 (IL-2 2.5 ng/mL) = assay: as above; conditions: 72 h
KHYG-1 (IL-2 2.5 ng/mL) = assay: as above; conditions: 72 h
NK-92 (IL-2 2.5 ng/mL) = assay: as above; conditions: 72 h
NK-YS (IL-2 2.5 ng/mL) = assay: as above; conditions: 72 h
NKL (IL-2 2.5 ng/mL) = assay: as above; conditions: 72 h
SNK-6 (IL-2 2.5 ng/mL) [8] = assay: as above; conditions: 72 h
YT (IL-2 2.5 ng/mL) [9] = assay: as above; conditions: 72 h
[10] = test system: normal primary NK cells, pool 1 (3 donors) (IL-2 2.5 ng/mL); assay: as above; conditions: 72 h
[11] = test system: normal primary NK cells, pool 1 (3 donors), resting (IL-2 0 ng/mL); assay: as above; conditions: 72 h
[12] = test system: normal primary NK cells, pool 2 (3 donors) (IL-2 2.5 ng/mL); assay: as above; conditions: 72 h
[13] = test system: normal primary NK cells, pool 3 (3 donors) (IL-2 2.5 ng/mL); assay: as above; conditions: 72 h
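For percent inhibition of viability in this document: normalised to DMSO-only wells as negative and benzethonium chloride as positive control.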

With `CC(C)C[C@H](NC(=O)[C@H](Cc1ccccc1)NC(=O)c1cnccn1)B(O)O` [Bortezomib] (max concentration tested 1000 nM) the “percent inhibition of viability” value (SNK-6 (IL-2 2.5 ng/mL) [1]; 10 nM) was 98.5%, the “percent inhibition of viability” value (SNK-6 (IL-2 2.5 ng/mL) [1]; 100 nM) was 101% and the “percent inhibition of viability” value (SNK-6 (IL-2 2.5 ng/mL) [1]; 1000 nM) was 100%. For the same compound, the “percent inhibition of viability” value (YT (IL-2 2.5 ng/mL) [2]; 0.1 nM) was -2.41%, the “percent inhibition of viability” value (YT (IL-2 2.5 ng/mL) [2]; 1 nM) was 0.1% and the “percent inhibition of viability” value (YT (IL-2 2.5 ng/mL) [2]; 10 nM) was 103%. For the same compound, the “percent inhibition of viability” value (YT (IL-2 2.5 ng/mL) [2]; 100 nM) was 107%, the “percent inhibition of viability” value (YT (IL-2 2.5 ng/mL) [2]; 1000 nM) was 101% and the “percent inhibition of viability” value ([3]; 0.1 nM) was -11.7%. The “percent inhibition of viability” value ([3]; 1 nM) was -7.66%, the “percent inhibition of viability” value ([3]; 10 nM) was 97.5% and the “percent inhibition of viability” value ([3]; 100 nM) was 98.1%. For the same compound, the “percent inhibition of viability” value ([3]; 1000 nM) was 98.4%, the “percent inhibition of viability” value ([4]; 0.1 nM) was -34.8% and the “percent inhibition of viability” value ([4]; 1 nM) was -55%. The “percent inhibition of viability” value ([4]; 10 nM) was 91.9%, the “percent inhibition of viability” value ([4]; 100 nM) was 94.3% and the “percent inhibition of viability” value ([4]; 1000 nM) was 94%. The “percent inhibition of viability” value ([5]; 0.1 nM) was -2.25%, the “percent inhibition of viability” value ([5]; 1 nM) was 0.14% and the “percent inhibition of viability” value ([5]; 10 nM) was 94.5%. The “percent inhibition of viability” value ([5]; 100 nM) was 95.3%, the “percent inhibition of viability” value ([5]; 1000 nM) was 96.2% and the “percent inhibition of viability” value ([6]; 0.1 nM) was -3.11%. The “percent inhibition of viability” value ([6]; 1 nM) was -8.2%, the “percent inhibition of viability” value ([6]; 10 nM) was 98.5% and the “percent inhibition of viability” value ([6]; 100 nM) was 98.7%. The “percent inhibition of viability” value ([6]; 1000 nM) was 99.1%, the drug sensitivity score [7] was 31.2 and the drug sensitivity score (DERL-7 (IL-2 2.5 ng/mL)) was 33.9. For the same compound, the drug sensitivity score (IMC-1 (IL-2 20 ng/mL)) was 30.2, the drug sensitivity score (KAI3 (IL-2 2.5 ng/mL)) was 30.6 and the drug sensitivity score (KHYG-1 (IL-2 2.5 ng/mL)) was 30.9. The drug sensitivity score (NK-92 (IL-2 2.5 ng/mL)) was 30.2, the drug sensitivity score (NK-YS (IL-2 2.5 ng/mL)) was 30.7 and the drug sensitivity score (NKL (IL-2 2.5 ng/mL)) was 30.3. It also gave a drug sensitivity score (SNK-6 (IL-2 2.5 ng/mL) [8]) of 32.6, a drug sensitivity score (YT (IL-2 2.5 ng/mL) [9]) of 30.8 and a drug sensitivity score [10] of 29.3. It also gave a drug sensitivity score [11] of 26.8, a drug sensitivity score [12] of 29.2 and a drug sensitivity score [13] of 29.5.
